Measured values from patent publication US6030960A, “Method of treating hepatitis virus infections” (priority 1998, dated 2000).
Several values for one entry are separate records, joined by “and”; a condition that tells them apart may be missing. Identical values can stand only once. Like-named read-outs stand apart in the source and are kept apart here.

Key:
Assay type in all cases: cell-based
Hepatitis B virus [1] = assay: Effect on synthesis of antigen markers in persistently infected human HEP G2 cell cultures (Table 7); conditions: for Relative Level of HBeAg / Relative Level of HBsAg / Relative Level of Virion DNA / activity at 10 µM: nine days; for Relative Level of HBeAg / Relative Level of HBsAg / Relative Level of Virion DNA: 12960 min; for activity at 10 µM: Hepatitis B virus, HepG2, 216 h
Procedure: Cells were treated with compound for nine days at 37° C. The overlay medium was harvested to measure levels of HBsAg, HBeAg and virion DNA. HBsAg and HBeAg were assayed by EIA (Abbott Laboratories). Virion DNA levels were measured as described in section B above.

[2] = Cytotoxicity in HBV persistently infected human HEP G2 cells, neutral red dye uptake (Table 5); conditions: human, hep-g2 cells
Excerpt: (§1) Initially, evaluations of the alkyl lipids were done to determine whether the compounds were cytotoxic to the cells at concentrations having anti-HBV activity. The assay methodology is szt forth in Korba and Germ, Antiviral Res., 19, 55-70 (1992), incorporated by reference herein. Briefly, these cell cytotoxicity evaluations were done in 96-well plates seeded with HEP-G2 cell monolayers. The hepatoblastoma cell line HEP-G2 transfected with a plasmid carrying the gene that confers resistance to […] and four 5'-3' tandem copies of the Hepatitis B virus genome was obtained from Dr. George Acs. Proc. Natl. Acad. Sci. USA, 84, 1005-1009 (1987). Serial concentrations of compound were added to the RPMI-1640 growth medium and the growth medium was added to the 96-well plates containing the cell monolayers. The cells were incubated for a total of nine days at 37° C. The compound-containing medium was periodically replaced. Each compound was tested at four serial concentrations in triplicate. After nine days of treatment and incubation, 0.01% neutral red dye (Sigma, Inc.) was added to the overlay medium. Cell cytotoxicity was quantitated by measuring the average A510. Values in Table 1 represent the percentage of average A510 values (±standard deviation) relative to nine non-treated control wells.
(§2) An analysis was periormed to determine the cytotoxicity of the following compounds in human HEP-G2 cells persistently infected with HBV: CP-51, CP-49, CP-9, CP-126, lyso PAF and CP-7. 2'-3'-Dideoxycytidine (ddC) was used as a control in this cytotoxicity analysis. The toxicity analyses were performed in 96-well flat bottomed tissue culture plates following the same procedure set forth in Example 6 above. Each compound was tested at four concentrations, each in triplicate cultures. Uptake of neutral red dye was used to determine the relative level of toxicity. The absorbance of internalized dye at […] (A510) was used for the quantitative analysis.
(§3) Values are presented as a percentage of the average A510 values (± standard deviations) in ninz separate cultures of untreated cells maintained on the same 96-well plate as the test compounds. The percentage of dye uptake in the nine control cultures was 100±1.

[3] = test system: HEP G2 cells persistently infected with HBV; assay: as above
Excerpt: as §1, §2, §3

Hepatitis B virus [4] = assay: Effect of alkyl lipids on HBV replication in HBV persistently infected human HEP G2 cells (Table 6); conditions: for Intracellular HBV DNA, Mono (episomal 3.2-3.8 Kb HBV genomes) / Intracellular HBV DNA, RI (replication intermediates): nine days
Procedure: Cells were treated with a particular compound for nine days at 37° C. Analysis of intracellular HEIV DNA was done 24 hours following the ninth day of treatment. […] The levels of integrated HBV DNA in each cellular DNA preparation were used to calculate the levels of episomal 3.2-3.8 Kb HBV genomes (Mono) and HBV DNA replication intermediates (RI). A zero value indicates an undetectable level of HBV virion DNA. The sensitivity cut-off was 0.1 pg DNA/ml of culture medium.

[5] = % of Control Neutral Red Dye Uptake
[6] = 10 μM, Day 9, 0 = undetectable, cut-off 0.1 pg DNA/ml

CCCCCCCCCCCCCCCCSCCOP(=O)([O-])OCC[N+](C)(C)C [CP-9, 2-hexadecylthio-1-ethylphosphocholine]
Relative Level of HBeAg (Hepatitis B virus [1]; 10 μM): 57 % of Untreated Control
Relative Level of HBsAg (Hepatitis B virus [1]; 10 μM): 64 % of Untreated Control
Relative Level of Virion DNA (Hepatitis B virus [1]; 10 μM): 16 % of Untreated Control
activity at 10 µM (Hepatitis B virus [1]; 10 μM, read-out: Relative Level of HBeAg): 53%
activity at 10 µM (Hepatitis B virus [1]; 10 μM, read-out: Relative Level of HBsAg): 68%
activity at 10 µM (Hepatitis B virus [1]; 10 μM, read-out: Relative Level of Virion DNA): 13%
effect on HBsAg levels released into the culture medium (Hepatitis B virus [1]; in words): None of the compounds tested
reduction in HBeAg and virion DNA levels (Hepatitis B virus [1]; in words): caused a reduction
viability at 216 h, 3 µM [2, 5]: 100 ± 1%
viability at 216 h, 10 µM [2, 5]: 99 ± 2%
viability at 216 h, 30 µM [2, 5]: 86 ± 2%
viability at 216 h, 100 µM [2, 5]: 45 ± 2%
Cell toxicity (greater than 50% depression of dye uptake) [3]: did not occur
HBV Virion DNA (Hepatitis B virus [4]; 1 μM, Day 0): 59 pg/ml Culture Medium and 53 pg/ml Culture Medium and 60 pg/ml Culture Medium and 58 pg/ml Culture Medium and 50 pg/ml Culture Medium and 55 pg/ml Culture Medium and 65 pg/ml Culture Medium
HBV Virion DNA (Hepatitis B virus [4]; 1 μM, Day 3): 66 pg/ml Culture Medium and 60 pg/ml Culture Medium and 82 pg/ml Culture Medium and 55 pg/ml Culture Medium and 52 pg/ml Culture Medium and 64 pg/ml Culture Medium and 90 pg/ml Culture Medium and 63 pg/ml Culture Medium
HBV Virion DNA (Hepatitis B virus [4]; 1 μM, Day 6): 57 pg/ml Culture Medium and 52 pg/ml Culture Medium and 88 pg/ml Culture Medium and 78 pg/ml Culture Medium and 83 pg/ml Culture Medium and 91 pg/ml Culture Medium and 64 pg/ml Culture Medium
HBV Virion DNA (Hepatitis B virus [4]; 1 μM, Day 9): 69 pg/ml Culture Medium and 71 pg/ml Culture Medium and 94 pg/ml Culture Medium and 76 pg/ml Culture Medium and 80 pg/ml Culture Medium and 92 pg/ml Culture Medium
Intracellular HBV DNA, Mono (episomal 3.2-3.8 Kb HBV genomes) (Hepatitis B virus [4]; 1 μM): 2.1 pg/μg Cell DNA and 2.6 pg/μg Cell DNA and 2.3 pg/μg Cell DNA and 2.0 pg/μg Cell DNA and 2.2 pg/μg Cell DNA and 2.4 pg/μg Cell DNA
Intracellular HBV DNA, RI (replication intermediates) (Hepatitis B virus [4]; 1 μM): 53 pg/μg Cell DNA and 82 pg/μg Cell DNA and 67 pg/μg Cell DNA and 60 pg/μg Cell DNA and 54 pg/μg Cell DNA and 64 pg/μg Cell DNA and 66 pg/μg Cell DNA
HBV Virion DNA (Hepatitis B virus [4]; 10 μM, Day 0): 60 pg/ml Culture Medium and 66 pg/ml Culture Medium and 61 pg/ml Culture Medium and 52 pg/ml Culture Medium
HBV Virion DNA (Hepatitis B virus [4]; 10 μM, Day 3): 52 pg/ml Culture Medium and 68 pg/ml Culture Medium and 57 pg/ml Culture Medium and 60 pg/ml Culture Medium
HBV Virion DNA (Hepatitis B virus [4]; 10 μM, Day 6): 33 pg/ml Culture Medium and 40 pg/ml Culture Medium and 39 pg/ml Culture Medium and 41 pg/ml Culture Medium
HBV Virion DNA (Hepatitis B virus [4]; [6]): 10 pg/ml Culture Medium and 14 pg/ml Culture Medium and 11 pg/ml Culture Medium
Intracellular HBV DNA, Mono (episomal 3.2-3.8 Kb HBV genomes) (Hepatitis B virus [4]; 10 μM): 2.3 pg/μg Cell DNA and 2.2 pg/μg Cell DNA
Intracellular HBV DNA, RI (replication intermediates) (Hepatitis B virus [4]; 10 μM): 13 pg/μg Cell DNA and 14 pg/μg Cell DNA and 17 pg/μg Cell DNA and 12 pg/μg Cell DNA
inhibition of HBV replication (Hepatitis B virus [4]; in words): moderately inhibitory of HBV replication

CCCCCCCCCCCCCCCCCCOCC(O)COP(=O)([O-])OCC[N+](C)(C)C (racemic) [lyso PAF, rac-3-octadecyloxy-2-hydroxy-1-propyl phosphocholine]
Relative Level of HBeAg (Hepatitis B virus [1]; 10 μM): 50 % of Untreated Control
Relative Level of HBsAg (Hepatitis B virus [1]; 10 μM): 80 % of Untreated Control
Relative Level of Virion DNA (Hepatitis B virus [1]; 10 μM): 15 % of Untreated Control
activity at 10 µM (Hepatitis B virus [1]; read-out: Relative Level of HBeAg, 10 μM): 45%
activity at 10 µM (Hepatitis B virus [1]; read-out: Relative Level of HBsAg, 10 μM): 78%
activity at 10 µM (Hepatitis B virus [1]; read-out: Relative Level of Virion DNA, 10 μM): 13%
viability at 216 h, 3 µM ([2]; Trial 2, 3 μM, read-out: % of Control Neutral Red Dye Uptake): 98 ± 2%
viability at 216 h, 10 µM ([2]; Trial 2, 10 μM, read-out: % of Control Neutral Red Dye Uptake): 99 ± 1%
viability at 216 h, 30 µM ([2]; Trial 2, 30 μM, read-out: % of Control Neutral Red Dye Uptake): 98 ± 2%
viability at 216 h, 100 µM ([2]; Trial 2, 100 μM, read-out: % of Control Neutral Red Dye Uptake): 40 ± 6%
HBV Virion DNA (Hepatitis B virus [4]; 0.1 μM, Day 0): 62 pg/ml Culture Medium and 60 pg/ml Culture Medium and 81 pg/ml Culture Medium and 57 pg/ml Culture Medium
HBV Virion DNA (Hepatitis B virus [4]; 0.1 μM, Day 3): 77 pg/ml Culture Medium and 81 pg/ml Culture Medium and 70 pg/ml Culture Medium and 69 pg/ml Culture Medium
HBV Virion DNA (Hepatitis B virus [4]; 0.1 μM, Day 6): 80 pg/ml Culture Medium and 79 pg/ml Culture Medium and 64 pg/ml Culture Medium and 88 pg/ml Culture Medium
HBV Virion DNA (Hepatitis B virus [4]; 0.1 μM, Day 9): 84 pg/ml Culture Medium and 96 pg/ml Culture Medium and 67 pg/ml Culture Medium and 92 pg/ml Culture Medium
Intracellular HBV DNA, Mono (episomal 3.2-3.8 Kb HBV genomes) (Hepatitis B virus [4]; 0.1 μM): 2.5 pg/μg Cell DNA and 2.1 pg/μg Cell DNA and 2.0 pg/μg Cell DNA
Intracellular HBV DNA, RI (replication intermediates) (Hepatitis B virus [4]; 0.1 μM): 84 pg/μg Cell DNA and 96 pg/μg Cell DNA and 67 pg/μg Cell DNA and 71 pg/μg Cell DNA
HBV Virion DNA (Hepatitis B virus [4]; 1 μM, Day 0): 52 pg/ml Culture Medium and 51 pg/ml Culture Medium and 63 pg/ml Culture Medium and 65 pg/ml Culture Medium
HBV Virion DNA (Hepatitis B virus [4]; 1 μM, Day 3): 69 pg/ml Culture Medium and 61 pg/ml Culture Medium and 53 pg/ml Culture Medium
HBV Virion DNA (Hepatitis B virus [4]; 1 μM, Day 6): 72 pg/ml Culture Medium and 79 pg/ml Culture Medium and 81 pg/ml Culture Medium
HBV Virion DNA (Hepatitis B virus [4]; 1 μM, Day 9): 74 pg/ml Culture Medium and 83 pg/ml Culture Medium and 59 pg/ml Culture Medium and 88 pg/ml Culture Medium
Intracellular HBV DNA, Mono (episomal 3.2-3.8 Kb HBV genomes) (Hepatitis B virus [4]; 1 μM): 2.6 pg/μg Cell DNA and 2.9 pg/μg Cell DNA and 2.4 pg/μg Cell DNA
Intracellular HBV DNA, RI (replication intermediates) (Hepatitis B virus [4]; 1 μM): 74 pg/μg Cell DNA and 83 pg/μg Cell DNA and 59 pg/μg Cell DNA and 84 pg/μg Cell DNA
HBV Virion DNA (Hepatitis B virus [4]; 10 μM, Day 0): 52 pg/ml Culture Medium and 62 pg/ml Culture Medium and 60 pg/ml Culture Medium and 68 pg/ml Culture Medium
HBV Virion DNA (Hepatitis B virus [4]; 10 μM, Day 3): 65 pg/ml Culture Medium and 71 pg/ml Culture Medium and 51 pg/ml Culture Medium and 50 pg/ml Culture Medium
HBV Virion DNA (Hepatitis B virus [4]; 10 μM, Day 6): 36 pg/ml Culture Medium and 34 pg/ml Culture Medium and 30 pg/ml Culture Medium and 32 pg/ml Culture Medium
HBV Virion DNA (Hepatitis B virus [4]; [6]): 14 pg/ml Culture Medium and 18 pg/ml Culture Medium and 11 pg/ml Culture Medium and 13 pg/ml Culture Medium
Intracellular HBV DNA, Mono (episomal 3.2-3.8 Kb HBV genomes) (Hepatitis B virus [4]; 10 μM): 2.0 pg/μg Cell DNA and 2.4 pg/μg Cell DNA and 2.6 pg/μg Cell DNA and 2.8 pg/μg Cell DNA
Intracellular HBV DNA, RI (replication intermediates) (Hepatitis B virus [4]; 10 μM): 15 pg/μg Cell DNA and 22 pg/μg Cell DNA and 18 pg/μg Cell DNA and 21 pg/μg Cell DNA
